Assay results as given in patent publication US20160228444A1, “NUCLEOSIDE ANALOGS AND USES THEREOF” (Ramot at Tel-Aviv University Ltd., priority 2015, published 2016).
Structures can show the parent of a compound that is named as a salt. Where two headings read alike, the source gives them in different places.

Key:
PBL = assay: Median-effect drug interaction, MTT viability, 72 h; assay type: cell-based; details: Homo sapiens
Description: (§1) Cell viability was determined by an MTT cell viability assay after 48 hours. MyLa cells (10^4 cells/well), Hut78 cells (5×10^3 cells/well) and normal PBLs (10^5 cells/well) were seeded in 96 well-plates. The PBLs were activated with 40 μg/10^6 cells of phytohemagglutinine (PHA) for 24 h before the experiment.
(§2) The ratios of the drug combination were based on the ratio of their IC50 of each drug alone. Cell viability was determined by MTT assay, as described hereinabove. The drugs were added to the cells and incubated for 72 h.

[1] = system: U251 MG human glioma cells; assay: FACS viability, annexin V-FITC / PI; assay type: cell-based; details: AN446 24 h; 200 nM Dox 5 h; combination compared to Dox alone; FIG. 1C
Description: (§3) Cell viability by flow cytometry analysis (FACS) analysis was determined using the Mebcyto apoptosis kit (MBL-Japan). The cell lines 4T1, U251 (2×10^5 cells/well), astrocytes and the cardiomyoblastic cell line H9C2 (5×10^5 cells/well) were seeded in six-well plates. Following treatment they were trypsinized, washed with PBS, resuspended in […] of binding buffer and double-stained with annexin V-FITC and propidium iodide (PI) according to the manufacturer's instructions. The stained cells were subjected to FACS analyses (Calibur cytometer, Becton Dickinson) where 30,000 cells were allowed to flow for each determination point and the percentage of cells in each state (viability or death) was defined by their distribution in fluorescence dot-plots using WinMdi 2.8 software (Scripps Research Institute, La-Jolla, USA).
(§4) The apoptotic effect of AN446, Dox and their combination was evaluated in U251 and 4T1 cancer cells, and in the non-cancerous rat cardiomyoblast cell line (H9C2) and in primary rat astrocytes, using procedures previously described for AN7 [Tarasenko et al., Invest New Drugs 2012, 30:130-143].

[2] = system: murine mammary carcinoma 4T1; assay: FACS viability, annexin V-FITC / PI; assay type: cell-based; details: AN446 24 h; 200 nM Dox 5 h; combination compared to Dox alone; FIG. 1C
Description: as §3, §4

fibrous collagen = assay: Fibrosis in tumor, heart and kidney of U251 xenograft mice (Picrosirius Red / Fast Green); assay type: in vivo; details: single agent
Description: (§5) AN446 was tested in vivo using a xenograft of glioblastoma (U251 cells) in mice.

TNF-α = assay: Serum TNF-α in U251 xenograft mice (ELISA); assay type: in vivo; details: single agent, FIG. 8C
Description: as §5

[3] = system: U251 human glioblastoma xenograft; assay: Glioblastoma xenograft model (survival, body weight, tumor volume, tumor weight, Ki-67)
Description: Xenograft of glioblastoma: 8- to 10-week-old male Hsd athymic FOXN (Harlan, Jerusalem, Israel) were inoculated sc in the flanks with 5×10^6 U251 cells. Tumor length (L) and width (W) were measured with a caliper twice weekly. Tumor volumes were calculated according to the formula: (L×W2)/2. When the tumor was established (volume of 50-100 mm^3) the mice were randomly divided into six groups treated with: vehicle control (saline); ip Dox 4 mg/kg once weekly; po AN446 25 mg/kg thrice a week; po AN7 50 mg/kg thrice a week; combination of AN446+Dox (4 mg/kg ip Dox once a week and 25 mg/kg po AN446 thrice a week); AN7+Dox (4 mg/kg ip Dox once a week and 50 mg/kg po AN7 thrice weekly). Untreated, non-bearing tumor naive mice were maintained under the same conditions. The experiment was terminated after 25 treatment days, the mice were sacrificed under CO2 and their tumors and hearts were removed, weighed and divided into parts dedicated for immunohistochemistry (IHC) and the rest were frozen (−80° C.) for Western blot and Quantitative PCR (qRT-PCR) analyses.
Inactivation of avidin-biotin nonspecific binding was prevented by a blocking kit, according to the manufacturer's protocol (Vector Laboratories). […] The secondary antibody was biotin conjugated goat anti-rabbit or anti-mouse IgG. Slides were then stained with the ABC peroxidase system, developed with diaminobenzidine (DAB) (Vector Laboratories) and counterstained with hematoxylin (Bio-Optica, Milano, Italy). The slides were examined using an Olympus BX 52 light microscope, and images were taken with an Olympus DP50 digital camera system.
Mice were implanted subcutaneously with U251 cells and when the tumors reached 50-100 mm^3 treatments were initiated. Survival was evaluated by the Kaplan-Meier end-product analysis, where treatment failure (the experimental end points) was a loss of ˜20% body weight, or a tumor volume of >1 cm^3.

VEGF = VEGF immunohistochemistry in tumor and heart of xenograft mice; assay type: in vivo; details: FIG. 4F
Description: (§6) The pro-angiogenic factors basic fibroblast growth factor (bFGF) and vascular endothelial growth factor (VEGF) are potent angiogenic stimulators. The expression of bFGF in the tumor and in the heart was evaluated by Western blot and qRT-PCR analyses and expression of VEGF by IHC.

bFGF = bFGF protein and mRNA in tumor and heart of xenograft mice (Western blot, qRT-PCR); assay type: in vivo; details: single agent
Description: (§7) Tumors and hearts of the mice were rapidly removed, frozen on dry ice and kept at −70° C. Tissue was then homogenized and RNA and proteins extracted using the NucleoSpin® RNA/Protein kit according to the manufacturer's protocol (Macherey-Nagel, GmbH & Co KG).
(§8) Total RNA ([…]) was primed by oligo dT and reverse-transcribed by Verso cDNA kit according to the manufacturer's protocol (Thermo Scientific). Analyses of qPCR were performed with Kapa Sybr® Fast (Kapa Biosystems) on a Step One Plus thermocycler (Applied Biosystems). The comparative threshold method was used to calculate the relative gene expression. Values were normalized against glyceraldehyde 3-phosphate dehydrogenase (GAPDH). Expression of the GAPDH mRNA in each individual sample was used to normalize the dataset. The sequences of the primers were as follows: […]
(§9) Protein levels in the samples were determined with the BCA protein assay kit (Pierce). The samples were subjected to Western blot analyses. The expression of proteins was visualized using their specified primary antibodies followed by the secondary IgG IRDye® 680DX antibody. Each detected band was quantified using the Odyssey Infrared Imaging System (LI-COR Biosciences) and normalized to the level of actin. The fold increase of a specific protein was determined by the ratio of the band intensity obtained from treated and untreated samples.
as §6

HO-1 = HO-1 protein and mRNA in tumor and heart of xenograft mice (Western blot, qRT-PCR); assay type: in vivo; details: single agent
Description: as §7, §8, §9
The effect of the drugs on the expression of genes associated with cell survival and death was examined by following changes in transcription and protein expression in tissue samples taken from the mice with glioblastoma xenografts. Heme oxygenase (HO-1) is known to play a protective role in the heart, whereas, in many cancers it is expressed and promotes growth and survival of neoplastic cells.

HUT-78 CTCL cells = assay: Median-effect drug interaction, MTT viability, 72 h; assay type: cell-based, human
Description: as §1, §2

c-Myc = c-Myc and p-c-Myc (Thr 58) Western blot in tumor and heart of xenograft mice; assay type: in vivo
Description: as §9
The c-Myc protein is an important regulator of normal cell physiology and in tumor cells it plays an important role in activating oncogenic pathways [Soucek & Evan, Curr Opin Genet Dev 2010, 20:91-95].

T47D cells = assay: Median-effect drug interaction, Hoechst viability, 72 h; assay type: cell-based, human
Description: as §2
(§10) Drug interaction in adherent cells was evaluated as above except that the viability was determined by Hoechst assay.

MDA-231 cells = assay: as above; assay type: cell-based, human; details: Homo sapiens
Description: as §2, §10

[4] = system: NCI-N87 gastric carcinoma cells; assay: as above; assay type: cell-based, human; details: Homo sapiens
Description: as §2, §10

COc1cccc2c1C(=O)c1c(O)c3c(c(O)c1C2=O)C[C@@](O)(C(=O)CO)C[C@@H]3O[C@H]1C[C@H](N)[C@H](O)[C@H](C)O1 [Dox, Doxorubicin hydrochloride]
IC50 (PBL; Dox in combination with AN446, read-out: Dox com IC50): 15 nM
IC50 (PBL; Dox in combination with SAHA, read-out: Dox com IC50): 20 nM
IC50 (PBL; single agent, read-out: Dox IC50): 70 nM
viability / mortality of U251 cells [1]: significantly reduced the viability
viability / mortality of 4T1 cells [2]: significantly reduced the viability
fibrosis in the heart (fibrous collagen; heart, FIGS. 8A-8C): induced fibrosis
fibrosis in the kidneys (fibrous collagen; kidneys, FIG. 8A): induced fibrosis
fibrosis in the tumor (fibrous collagen; tumor, FIG. 8A): reduced fibrosis
serum levels of TNF-α (TNF-α): increased serum levels of TNF-α
body weight ([3]; Dox 4 mg/kg ip once a week, from day 13): drastic decrease in body weight
treatment failure ([3]; Dox 4 mg/kg ip once a week, weight loss contributing): 60%
Ki-67 positive cells in tumors ([3]; single agent vs vehicle, FIGS. 3E, 3F): considerably more Ki-67 positive cells were detected in tumors of the vehicle-treated mice
survival of mice until end of experiment (day 25) ([3]; single agent: AN446 25 mg/kg or AN7 50 mg/kg po thrice weekly, Dox 4 mg/kg ip once a week, FIG. 3A): 40%
VEGF expression in the heart (VEGF): reduced
expression of mouse bFGF protein in the heart (bFGF; heart, FIG. 4D): decreased significantly
bFGF mRNA in the tumor (bFGF; tumor, FIG. 6): significantly reduced the bFGF mRNA
expression of bFGF in tumors (bFGF; tumor, FIGS. 4A, 4B): decreased significantly
HO-1 mRNA in the heart (HO-1; heart): decreased HO-1 mRNA
HO-1 expression in the heart (decrease) (HO-1; heart, FIGS. 4D, 4E): ~5 fold
tumor HO-1 protein expression (decrease) (HO-1; tumor, FIGS. 4A, 4B): unchanged
IC50 (HUT-78 CTCL cells; HUT-78, single agent, hydrochloride, read-out: Dox IC50): 31 nM
IC50 (HUT-78 CTCL cells; Homo sapiens, HuT78, HUT-78, Dox in combination with AN446, read-out: Dox com IC50): 11 nM
IC50 (HUT-78 CTCL cells; Homo sapiens, HuT78, HUT-78, Dox in combination with SAHA, read-out: Dox com IC50): 12 nM
IC50 (HUT-78 CTCL cells; Homo sapiens, HuT78, HUT-78, single agent, read-out: Dox IC50): 30.8 nM
c-Myc protein expression in the hearts (c-Myc; heart, FIG. 5B): repressed
c-Myc protein expression in tumors (c-Myc; tumor, FIG. 5A): unaffected
IC50 (T47D cells; Homo sapiens, Dox in combination with AN446, read-out: Dox com IC50): 7.6 nM
IC50 (T47D cells; Homo sapiens, Dox in combination with SAHA, read-out: Dox com IC50): 5.2 nM
IC50 (T47D cells; Homo sapiens, single agent, read-out: Dox IC50): 19 nM
IC50 (T47D cells; single agent, hydrochloride, read-out: Dox IC50): 19.1 nM
IC50 (MDA-231 cells; MDA-MB-231, MDA-231, Dox in combination with AN446, read-out: Dox com IC50): 5.3 nM
IC50 (MDA-231 cells; MDA-MB-231, MDA-231, Dox in combination with SAHA, read-out: Dox com IC50): 4.3 nM
IC50 (MDA-231 cells; MDA-MB-231, MDA-231, single agent, read-out: Dox IC50): 10.2 nM
IC50 ([4]; NCI-N87, NCI-N87, Dox in combination with AN446, read-out: Dox com IC50): 8.5 ± 1 nM
IC50 ([4]; NCI-N87, NCI-N87, single agent, read-out: Dox IC50): 30 ± 1.3 nM
